We go through eight compounds from ChEMBL document CHEMBL4834393, “Building a Chemical Toolbox for Human Pregnane X Receptor Research: Discovery of Agonists, Inverse Agonists, and Antagonists Among Analogs Based on the Unique Chemical Scaffold of SPA70” (J Med Chem, 2021).

Data set [1] addresses T1, Bile acid receptor (Homo sapiens) (UniProt Q96RI1).
T1 sequence (whole entry): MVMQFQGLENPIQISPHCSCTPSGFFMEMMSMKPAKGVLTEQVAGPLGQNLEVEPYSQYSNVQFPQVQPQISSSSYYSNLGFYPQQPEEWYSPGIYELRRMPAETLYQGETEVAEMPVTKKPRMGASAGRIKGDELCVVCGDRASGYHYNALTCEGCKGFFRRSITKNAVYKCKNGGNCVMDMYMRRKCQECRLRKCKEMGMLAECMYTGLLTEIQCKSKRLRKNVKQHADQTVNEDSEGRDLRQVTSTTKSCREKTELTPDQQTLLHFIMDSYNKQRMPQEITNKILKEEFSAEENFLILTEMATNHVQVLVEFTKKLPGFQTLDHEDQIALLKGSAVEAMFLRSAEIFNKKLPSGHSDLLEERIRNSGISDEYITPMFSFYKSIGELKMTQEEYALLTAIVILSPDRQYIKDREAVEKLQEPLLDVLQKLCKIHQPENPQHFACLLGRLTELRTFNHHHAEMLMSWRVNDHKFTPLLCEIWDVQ
Briefly: Antagonist activity at human FXR expressed in HEK293T cells in presence of GW4064 by luciferase reporter assay. Type of data set: cell-based.

Data set [2] addresses T2, Nuclear receptor subfamily 1 group I member 2 (Homo sapiens, UniProt O75469).
T2 sequence (O75469 whole entry): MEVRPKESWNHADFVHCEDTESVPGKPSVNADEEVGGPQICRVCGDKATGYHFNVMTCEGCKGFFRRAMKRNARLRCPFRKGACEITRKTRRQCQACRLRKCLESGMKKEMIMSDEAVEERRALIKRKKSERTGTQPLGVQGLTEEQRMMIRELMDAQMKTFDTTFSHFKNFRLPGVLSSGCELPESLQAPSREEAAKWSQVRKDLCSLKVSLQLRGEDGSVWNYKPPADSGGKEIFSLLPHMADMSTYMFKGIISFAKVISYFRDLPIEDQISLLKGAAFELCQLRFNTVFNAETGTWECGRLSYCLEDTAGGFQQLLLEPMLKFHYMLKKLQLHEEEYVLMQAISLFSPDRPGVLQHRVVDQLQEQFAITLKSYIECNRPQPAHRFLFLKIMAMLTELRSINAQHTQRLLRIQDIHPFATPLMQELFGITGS
Put plainly: Antagonist activity at human PXR expressed in HepG2 cells co-expressing luciferase gene under control of CYP3A4 promoter incubated for 24 hrs in presence of 5 uM rifampicin by luciferase reporter assay. (In general: A reporter such as luciferase makes a cellular process visible.)

The subject of data set [3] is constitutive androstane receptor, NR1I3 (Homo sapiens). Put plainly: Agonist activity at human CAR by luciferase reporter assay.
Data set [4] concerns the target T3, PXR (NR1I2) (Homo sapiens, UniProt O75469).
T3 sequence (O75469 whole entry): T2 sequence (O75469 whole entry)
Briefly: Displacement of BODIPY FL vindoline from GST-tagged human PXR LBD at 10 uM incubated for 60 mins by TR-FRET assay relative to control. The note with it: GST-tagged human PXR LBD (recombinant protein), probe BODIPY FL vindoline.

The next data set relates to HepG2. Briefly: Cytotoxicity against human HepG2 cells co-expressing luciferase gene under control of CYP3A4 promoter measured after 24 hrs by CellTiter-Glo luminescent cell viability assay. Type of data set: ADME, cell-based. The note with it: for Activity: human, hepg2, 24 h, time 24 hrs.
Data set [5] concerns the target T3, PXR (NR1I2). Briefly: Inhibition of human PXR expressed in HepG2 cells co-expressing luciferase gene under control of CYP3A4 promoter at 10 uM incubated for 24 hrs in presence of 5 uM rifampicin by luciferase reporter assay relative to control. Type of data set: cell-based.
Data set [6] deals with T1, Bile acid receptor (Homo sapiens). Briefly: Agonist activity at human FXR expressed in HEK293T cells by luciferase reporter assay. The data set is classed as cell-based.
Data set [7] has as its target T3, PXR (NR1I2). Put plainly: Agonist activity at human PXR expressed in HepG2 cells co-expressing luciferase gene under control of CYP3A4 promoter at 10 uM incubated for 24 hrs by luciferase reporter assay relative to control.
Data set [8] concerns the target T2, Nuclear receptor subfamily 1 group I member 2. Briefly: Displacement of BODIPY FL vindoline from GST-tagged human PXR LBD incubated for 60 mins by TR-FRET assay.
The target of data set [9] is T4, Vitamin D3 receptor (Homo sapiens) (UniProt P11473).
T4 sequence (whole entry): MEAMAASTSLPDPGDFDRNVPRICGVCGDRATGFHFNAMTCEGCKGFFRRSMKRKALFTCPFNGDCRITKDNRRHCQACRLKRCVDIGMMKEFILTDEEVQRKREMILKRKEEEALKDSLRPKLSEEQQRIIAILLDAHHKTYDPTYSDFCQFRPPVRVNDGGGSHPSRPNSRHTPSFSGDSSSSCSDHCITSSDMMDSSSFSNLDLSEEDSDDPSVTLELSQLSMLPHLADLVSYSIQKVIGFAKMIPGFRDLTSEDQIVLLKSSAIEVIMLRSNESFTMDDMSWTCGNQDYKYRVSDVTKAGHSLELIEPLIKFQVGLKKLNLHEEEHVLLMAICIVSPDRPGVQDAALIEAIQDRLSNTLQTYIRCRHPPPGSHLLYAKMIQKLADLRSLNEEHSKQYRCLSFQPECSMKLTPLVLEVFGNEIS
Put plainly: Antagonist activity at human VDR expressed in HEK293T cells in presence of 1alpha,25-dihydroxyvitamin D3 by luciferase reporter assay. Type of data set: cell-based.

For data set [10], the target named is T5, Nuclear receptor subfamily 1 group I member 2 (Mus musculus, UniProt O54915).
T5 sequence (O54915 whole entry): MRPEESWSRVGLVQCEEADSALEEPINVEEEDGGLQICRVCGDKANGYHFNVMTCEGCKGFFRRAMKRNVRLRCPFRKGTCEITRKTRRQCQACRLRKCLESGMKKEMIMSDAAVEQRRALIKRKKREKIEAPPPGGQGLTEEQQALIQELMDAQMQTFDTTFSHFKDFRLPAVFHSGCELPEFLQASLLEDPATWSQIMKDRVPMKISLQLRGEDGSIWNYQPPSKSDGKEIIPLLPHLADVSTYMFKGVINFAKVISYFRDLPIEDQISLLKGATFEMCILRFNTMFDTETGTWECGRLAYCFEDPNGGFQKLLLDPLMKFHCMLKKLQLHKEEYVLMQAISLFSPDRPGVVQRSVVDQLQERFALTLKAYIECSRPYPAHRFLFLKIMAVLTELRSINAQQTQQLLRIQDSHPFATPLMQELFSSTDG
Put plainly: Antagonist activity at mouse PXR in presence of PCN by luciferase reporter assay.

The target in data set [11] is T2, Nuclear receptor subfamily 1 group I member 2. Put plainly: Agonist activity at human PXR expressed in HepG2 cells co-expressing luciferase gene under control of CYP3A4 promoter incubated for 24 hrs by luciferase reporter assay.
Data set [12] deals with T4, Vitamin D3 receptor (Homo sapiens). Put plainly: Agonist activity at human VDR expressed in HEK293T cells by luciferase reporter assay. The data set is classed as cell-based.
The target in data set [13] is T5, Nuclear receptor subfamily 1 group I member 2. Briefly: Agonist activity at mouse PXR by luciferase reporter assay. The data set is classed as ADME.

Calls of active or inactive are those of the source. No cut-off for these calls is given here.

For `COc1ccc(F)cc1-n1nnc(S(=O)(=O)c2ccc(C(C)(C)C)cc2)c1C`, the Activity entry in data set [1], in data set [3], in data set [6], in data set [9] and in data set [12] was “inactive” in each case. Also, the IC50 (usually the midpoint of a concentration-inhibition curve) worked out at 700 nM in [2] and 400 nM in [8]. Further, on PXR (NR1I2) [4], the inhibition (usually the relative decrease from the control value, in per cent) at 1 h, 10 µM was 80%. Besides, the values for the Activity entry (in the data set with HepG2; in data set [10]) were “Non-Toxic” and “Not Active”, respectively. In addition, the inhibition at 24 h, 10 µM at PXR (NR1I2) [5] is 70%. Further, the activity at 24 h, 10 µM at PXR (NR1I2) [7] is 37%. A half-maximal response in data set [11] (EC50) required 240 nM.

For `COc1ccc(Cl)cc1-n1nnc(S(=O)(=O)c2ccc(C(C)(C)C)cc2)c1C#N`, the Activity entry in [1], in data set [3], in [6], in data set [9] and in data set [12] was “inactive” throughout. Further, the inhibition at 1 h, 10 µM at PXR (NR1I2) [4] was determined as 90%. Besides, the figures for the Activity entry (in the data set on HepG2; in data set [13]; in data set [10]) were “Non-Toxic”, “Not Active” and “Not Active”, respectively. In addition, at PXR (NR1I2) [7], the activity at 24 h, 10 µM is 105%. This compound displayed an IC50 in data set [8] of 61 nM. For the same compound, the EC50 (commonly the midpoint of the concentration-response curve) in [11] was determined as 80 nM.

Take `COc1cc(C(C)=O)c(C)cc1-n1nnc(S(=O)(=O)c2ccc(C(C)(C)C)cc2)c1C`: the IC50 in data set [2] was found to be 9000 nM; in the data set with HepG2 (Homo sapiens, HepG2, 24 h), 16500 nM; in data set [8] it was 1400 nM. In addition, the inhibition at 1 h, 10 µM on PXR (NR1I2) [4] came out at 80%. In addition, at PXR (NR1I2) [5], the inhibition at 24 h, 10 µM was 111%. Further, the activity at 24 h, 10 µM at PXR (NR1I2) [7] worked out at 77%. Besides, it took 400 nM to reach a half-maximal effect in data set [11] (EC50).

On to `COc1ccc(C)cc1-n1nnc(S(=O)(=O)c2ccc(C(C)(C)C)cc2)c1N`, for which the IC50 in data set [2] was found to be 3300 nM; in data set [8], 280 nM. For the same compound, the inhibition at 1 h, 10 µM at PXR (NR1I2) [4] came to 88%. The inhibition at 24 h, 10 µM on PXR (NR1I2) [5] was 46%. Moreover, the activity at 24 h, 10 µM at PXR (NR1I2) [7] was 73%. In addition, the EC50 in data set [11] turned out to be 160 nM.

Take `COc1ccc(Cl)cc1-n1nnc(S(=O)(=O)c2ccc(C(C)(C)C)cc2)c1N`: the figures for the IC50 in data set [2] and in [8] were 4400 nM and 500 nM, respectively. Also, the inhibition at 1 h, 10 µM at PXR (NR1I2) [4] was determined as 93%. In addition, the inhibition at 24 h, 10 µM at PXR (NR1I2) [5] amounted to 78%. Moreover, the activity at 24 h, 10 µM at PXR (NR1I2) [7] was 42%. This compound also returned an EC50 in data set [11] of 110 nM.

As to `CCc1c(S(=O)(=O)c2ccc(C(C)(C)C)cc2)nnn1-c1cc(OC)ccc1OC`, in [3], the Activity entry is “inactive”. Further, the Activity entry is reported as “Non-Toxic” in the data set with HepG2, “Not Active” in [13] and “Not Active” in [10].

Consider `COc1cc(C)c(Cl)cc1-n1nnc(S(=O)(=O)c2ccc(C(C)(C)C)cc2)c1C`, for which the IC50 came out at 2300 nM in [2] and 1200 nM in data set [8]. Besides, at PXR (NR1I2) [4], the inhibition at 1 h, 10 µM was found to be 87%. The inhibition at 24 h, 10 µM at PXR (NR1I2) [5] was 64%. Moreover, the activity at 24 h, 10 µM at PXR (NR1I2) [7] worked out at 33%. In data set [11], this compound came in with an EC50 of 1000 nM.

In the case of `COC(=O)c1cc(OC)c(-n2nnc(S(=O)(=O)c3ccc(C(C)(C)C)cc3)c2C)cc1C`, the IC50 in data set [2] was found to be 6000 nM; in data set [8], 1500 nM. On PXR (NR1I2) [4], the inhibition at 1 h, 10 µM is 64%. The inhibition at 24 h, 10 µM at PXR (NR1I2) [5] came out at 32%. Besides, on PXR (NR1I2) [7], the activity at 24 h, 10 µM is 75%. The compound further showed an EC50 in data set [11] of 1600 nM.
